Test results from the NIST ThermoML archive (doi:10.1016/j.fluid.2016.10.027).
Numbers after ± are expanded uncertainties.

Tests used:
[1] = refractive index (Na D-line) (dimensionless); conditions: 101.33 kPa, Liquid, Standard Abbe refractometry
[2] = 101.33 kPa, Liquid, Vibrating tube method

SMILES: CCC(C)OC(C)=O (configuration not stated) [1-methylpropyl ethanoate]
- refractive index ([1]; 293.15 K): 1.3876 ± 0.0006
- mass density ([2]; 293.15 K): 871 ± 2 kg/m3

SMILES: CC(=O)O [acetic acid]
- refractive index ([1]; 298.15 K): 1.3703 ± 0.0005
- mass density ([2]; 298.15 K): 1044.6 ± 2 kg/m3

SMILES: CCC(C)O (configuration not stated) [butan-2-ol]
- refractive index ([1]; 298.15 K): 1.3962 ± 0.0005
- mass density ([2]; 298.15 K): 804 ± 2 kg/m3

SMILES: O [water]
- refractive index ([1]; 298.15 K): 1.332 ± 0.0005
